# Data published in patent publication US7598255B2 (Janssen Pharmaceutica NV, priority 2005, dated 2009).
# Structures can show the parent of a compound that is named as a salt.
# Tests used:
# rat 5-HT7a receptor = rat 5-HT7a receptor (Rattus norvegicus, UniProt P32305); assay: Affinity for 5-HT7 receptor binding sites, radioligand binding with [3H]5-CT; details: membranes of HEK-293 cells with rat 5-HT7a, 1 nM [3H]5-CT
# Description: The affinity of the compounds described in this invention for the 5-HT7 receptor binding site was evaluated by single competition radioligand binding assay. The assay was performed on membranes prepared from HEK-293 cells that had been subjected to stable transfection with the rat 5-HT7a receptor (GB: NM022938). Cells were scraped from the culture plates, suspended in Tris-HCl 50 mM pH 7.5 and collected through centrifugation (1000 rpm for 5 min). The cell pellets were homogenized (Polytron, 15 s, setting 5) in 50 mM Tris-HCl (pH 7.5), 5 mM EDTA. Following centrifugation (15,000 rpm for 25 min), membranes (135 μg protein/mL) were resuspended in the same buffer and incubated for 60 min at RT with 1 nM [^3H]5-CT in the presence of increasing concentration of test compounds. Nonspecific binding was defined in the presence of 10 μM 5-HT. Incubation was stopped by rapid filtration using the cell harvester (Packard). Radioactivity was counted in a TopCount-NXT (Packard). Experiments were conducted in triplicate.
# 5-HT2B receptor = 5-HT2B receptor (Homo sapiens, UniProt P41595); assay: Affinity for 5HT2 receptor binding sites, h5-HT2B, [3H]mesulergine; details: CHO h5-HT2B membranes
# [1] = target: T1, human recombinant 5-HT2C receptor (Homo sapiens, UniProt P28335); assay: Affinity for 5HT2 receptor binding sites, h5-HT2C, [3H]mesulergine; details: CHO h5-HT2C membranes
# T1 sequence (P28335 33-458): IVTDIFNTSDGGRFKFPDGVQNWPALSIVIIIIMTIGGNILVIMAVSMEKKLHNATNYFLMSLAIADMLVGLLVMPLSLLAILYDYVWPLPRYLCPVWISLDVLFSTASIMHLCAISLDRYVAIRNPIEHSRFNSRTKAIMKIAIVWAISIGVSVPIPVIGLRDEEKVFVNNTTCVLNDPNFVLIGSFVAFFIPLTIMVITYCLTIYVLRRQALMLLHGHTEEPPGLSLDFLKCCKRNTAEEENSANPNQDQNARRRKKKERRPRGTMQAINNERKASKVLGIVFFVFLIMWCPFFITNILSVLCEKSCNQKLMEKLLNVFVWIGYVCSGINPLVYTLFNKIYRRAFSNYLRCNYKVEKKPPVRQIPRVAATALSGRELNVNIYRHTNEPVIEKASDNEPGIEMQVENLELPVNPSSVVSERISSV
# 5-HT2A receptor = 5-HT2A receptor (Homo sapiens, UniProt P28223); assay: Affinity for 5-HT2A receptor binding sites, radioligand binding with [3H]ketanserin; details: read-out: Ki 5-HT2A, rat cortex membranes (assay 2) or NIH3T3 h5-HT2A membranes (assay 3), table does not say which
# Chain of rat 5-HT7a receptor (P32305 whole entry): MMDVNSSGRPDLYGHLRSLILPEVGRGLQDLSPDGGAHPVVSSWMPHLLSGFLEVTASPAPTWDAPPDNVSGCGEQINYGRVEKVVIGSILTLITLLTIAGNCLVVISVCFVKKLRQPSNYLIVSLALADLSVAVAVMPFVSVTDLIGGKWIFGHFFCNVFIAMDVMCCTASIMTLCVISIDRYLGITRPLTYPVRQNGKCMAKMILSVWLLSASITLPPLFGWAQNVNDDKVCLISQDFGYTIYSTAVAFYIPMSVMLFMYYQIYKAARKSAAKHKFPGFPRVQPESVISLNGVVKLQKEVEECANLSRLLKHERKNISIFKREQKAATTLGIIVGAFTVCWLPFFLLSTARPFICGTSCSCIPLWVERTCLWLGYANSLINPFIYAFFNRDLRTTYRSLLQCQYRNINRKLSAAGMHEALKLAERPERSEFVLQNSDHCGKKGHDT
# Chain of 5-HT2B receptor (P41595 whole entry): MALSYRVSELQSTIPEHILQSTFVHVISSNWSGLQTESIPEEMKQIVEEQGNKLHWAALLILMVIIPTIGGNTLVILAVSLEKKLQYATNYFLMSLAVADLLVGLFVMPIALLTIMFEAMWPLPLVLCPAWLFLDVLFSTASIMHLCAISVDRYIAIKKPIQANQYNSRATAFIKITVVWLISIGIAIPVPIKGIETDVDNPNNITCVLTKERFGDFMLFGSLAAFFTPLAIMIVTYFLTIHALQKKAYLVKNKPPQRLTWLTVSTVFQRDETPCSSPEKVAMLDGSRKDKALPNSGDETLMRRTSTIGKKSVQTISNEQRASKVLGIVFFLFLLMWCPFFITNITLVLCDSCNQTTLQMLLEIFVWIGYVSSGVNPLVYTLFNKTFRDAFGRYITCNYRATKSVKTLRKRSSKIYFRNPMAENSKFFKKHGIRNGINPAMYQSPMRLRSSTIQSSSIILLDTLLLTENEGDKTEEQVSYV
Compound,Ki (rat 5-HT7a receptor) [nM],Ki (5-HT2B receptor) [nM],Ki [1] [nM],Ki (5-HT2A receptor) [nM]
"CC(C)c1nc2c(c(-c3ccc(F)cc3)n1)CCCC2 [Example 111, 4-(4-Fluoro-phenyl)-2-isopropyl-5,6,7,8-tetrahydro-quinazoline]",> 10000,3500,> 10000,300
"CN(C)CCc1cc(-c2ccc(F)cc2)nc(C(C)(C)C)n1 [Example 167, {2-[2-tert-Butyl-6-(4-fluoro-phenyl)-pyrimidin-4-yl]-ethyl}-dimethyl-amine]",450,14,200,7
"Cc1ccc(-c2nc(C3CCC3)nc3c2CNCC3)cc1 [Example 6, 2-Cyclobutyl-4-p-tolyl-5,6,7,8-tetrahydro-pyrido[4,3-d]pyrimidine]",> 10000,200,300,50
"CC(C)c1nc(-c2ccc(-c3ccc(Cl)cc3)cc2)c2c(n1)C(C)CN(Cc1ccccc1)C2 (stereo not shown) [Example 99, 6-Benzyl-4-(4′-chloro-biphenyl-4-yl)-2-isopropyl-8-methyl-5,6,7,8-tetrahydro-pyrido[4,3-d]pyrimidine]",> 10000,> 10000,> 10000,> 10000
"COc1ccc(-c2nc(C(C)C)nc3c2CCCNC3)cc1 [Example 67, 2-Isopropyl-4-(4-methoxy-phenyl)-6,7,8,9-tetrahydro-5H-pyrimido[4,5-c]azepine]",5400,80,495,56
"CNC1CCc2c(nc(C(C)C)nc2-c2ccc(F)cc2)C1 (stereo not shown) [Example 108, [4-(4-Fluoro-phenyl)-2-isopropyl-5,6,7,8-tetrahydro-quinazolin-7-yl]-methyl-amine hydrochloride]",> 10000,42,1000,18
"Cc1ccc(-c2nc(C(C)C)nc3c2CNCC3)cc1 [Example 28, 2-Isopropyl-4-p-tolyl-5,6,7,8-tetrahydro-pyrido[4,3-d]pyrimidine]",> 10000,400,3000,100
"N#Cc1ccc(-c2nc(C3CCCC3)nc3c2CNCC3)cc1 [Example 20, 4-(2-Cyclopentyl-5,6,7,8-tetrahydro-pyrido[4,3-d]pyrimidin-4-yl)-benzonitrile]",> 10000,1200,> 10000,700
"Cc1ccc(-c2nc(C(C)C)nc3c2CCCNC3)cc1 [Example 66, 2-Isopropyl-4-p-tolyl-6,7,8,9-tetrahydro-5H-pyrimido[4,5-c]azepine hydrochloride]",300,30,145,8
"c1ccc(Cc2nc3c(c(-c4ccccc4)n2)CCN(Cc2ccccc2)C3)cc1 [Example 72, 2,7-Dibenzyl-4-phenyl-5,6,7,8-tetrahydro-pyrido[3,4-d]pyrimidine]",> 10000,> 10000,> 10000,130
"CC(C)c1nc2c(c(-c3ccc(F)cc3)n1)CCC(O)C2 (stereo not shown) [Example 110, 4-(4-Fluoro-phenyl)-2-isopropyl-5,6,7,8-tetrahydro-quinazolin-7-ol]",> 10000,1200,4000,220
"CC(C)c1nc2c(c(-c3cccc(F)c3)n1)CNCC2 [Example 25, 4-(3-Fluoro-phenyl)-2-isopropyl-5,6,7,8-tetrahydro-pyrido[4,3-d]pyrimidine]",> 10000,> 10000,> 10000,300
"CCC(C)c1nc2c(c(-c3cccc(F)c3)n1)CNCC2 (stereo not shown) [Example 43, 2-sec-Butyl-4-(3-fluoro-phenyl)-5,6,7,8-tetrahydro-pyrido[4,3-d]pyrimidine]",> 10000,> 10000,> 10000,200
"c1ccc(Cc2nc3c(c(-c4ccccc4)n2)CNCC3)cc1 [Example 11, 2-Benzyl-4-phenyl-5,6,7,8-tetrahydro-pyrido[4,3-d]pyrimidine]",> 10000,> 10000,2000,100
"Cc1ccc(-c2cc(CCN)nc(Cc3ccccc3)n2)cc1 [Example 115, 2-(2-Benzyl-6-p-tolyl-pyrimidin-4-yl)-ethylamine]",5000,5000,> 10000,1000
"CC(C)c1nc(-c2ccc(C(F)(F)F)cc2)c2c(n1)C(C)CN(Cc1ccccc1)C2 (stereo not shown) [Example 96, 6-Benzyl-2-isopropyl-8-methyl-4-(4-trifluoromethyl-phenyl)-5,6,7,8-tetrahydro-pyrido[4,3-d]pyrimidine]",> 10000,> 10000,> 10000,> 10000
"CCC(C)c1nc2c(c(-c3ccc(C)cc3)n1)CNCC2 (stereo not shown) [Example 4, 2-sec-Butyl-4-p-tolyl-5,6,7,8-tetrahydro-pyrido[4,3-d]pyrimidine hydrochloride]",> 10000,250,200,20
"CC(C)c1nc2c(c(-c3ccccc3Oc3ccccc3)n1)CNCC2 [Example 33, 2-Isopropyl-4-(2-phenoxy-phenyl)-5,6,7,8-tetrahydro-pyrido[4,3-d]pyrimidine]",> 10000,> 10000,> 10000,> 10000
"Cc1ccc(-c2cc(CN3CCN(C)CC3)nc(Cc3ccccc3)n2)cc1 [Example 113, 2-Benzyl-4-(4-methyl-piperazin-1-ylmethyl)-6-p-tolyl-pyrimidine]",> 10000,> 10000,> 10000,650
"CC(C)(C)c1nc2c(c(-c3ccc(F)cc3)n1)CNCC2 [Example 1, 2-tert-Butyl-4-(4-fluoro-phenyl)-5,6,7,8-tetrahydro-pyrido[4,3-d]pyrimidine]",540,70,90,4
"CC(C)c1nc2c(c(-c3ccc(F)cc3)n1)CCN(C)C2 [Example 84, 4-(4-Fluoro-phenyl)-2-isopropyl-7-methyl-5,6,7,8-tetrahydro-pyrido[3,4-d]pyrimidine hydrochloride]",> 10000,400,5000,14
"CC(C)Cc1nc2c(c(-c3ccncc3)n1)CNCC2 [Example 36, 2-Isobutyl-4-pyridin-4-yl-5,6,7,8-tetrahydro-pyrido[4,3-d]pyrimidine]",> 10000,> 10000,> 10000,> 10000
"CC(C)c1nc(-c2ccc(F)c(Cl)c2)c2c(n1)C(C)CN(Cc1ccccc1)C2 (stereo not shown) [Example 93, 6-Benzyl-4-(3-chloro-4-fluoro-phenyl)-2-isopropyl-8-methyl-5,6,7,8-tetrahydro-pyrido[4,3-d]pyrimidine]",> 10000,> 10000,> 10000,> 10000
"Fc1ccc(-c2nc(Cc3ccccc3)nc3c2CNCC3)cc1F [Example 10, 2-Benzyl-4-(3,4-difluoro-phenyl)-5,6,7,8-tetrahydro-pyrido[4,3-d]pyrimidine]",> 10000,> 10000,5000,200
"Cc1ccc(-c2nc(C(C)C)nc3c2CN(Cc2ccccc2)CC3C)cc1 (stereo not shown) [Example 94, 6-Benzyl-2-isopropyl-8-methyl-4-p-tolyl-5,6,7,8-tetrahydro-pyrido[4,3-d]pyrimidine]",> 10000,> 10000,> 10000,> 10000
"CC(C)c1nc(-c2ccc(F)c(Cl)c2)c2c(n1)C(C)CNC2 (stereo not shown) [Example 101, 4-(3-Chloro-4-fluoro-phenyl)-2-isopropyl-8-methyl-5,6,7,8-tetrahydro-pyrido[4,3-d]pyrimidine hydrochloride]",> 10000,> 10000,> 10000,400
"Cc1nc2c(c(-c3ccccc3)n1)CCNCC2 [Example 52, 2-Methyl-4-phenyl-6,7,8,9-tetrahydro-5H-pyrimido[4,5-d]azepine]",> 10000,1150,9000,725
"CC(C)c1nc(-c2ccsc2)c2c(n1)C(C)CN(Cc1ccccc1)C2 (stereo not shown) [Example 98, 6-Benzyl-2-isopropyl-8-methyl-4-thiophen-3-yl-5,6,7,8-tetrahydro-pyrido[4,3-d]pyrimidine]",> 10000,> 10000,> 10000,> 10000
